Measured values taken from US9402925B2, “Probes and methods of imaging a bacterial infection” (The Board of Trustees of the Leland Stanford Junior …, priority 2013, dated 2016).
“Also recorded” adds a separate entry of the source. Read-outs that look alike come from different tables or passages of the source.

Experiments:
Escherichia coli = experiment: Competition assay: blocking of 3H-maltose uptake by E. coli; format: cell-based; settings: co-incubation, 1 mM; 3H-labeled maltose uptake for 10 mins; FIG. 2.4
Method: Coli and a mammalian cell line (EL4) were exposed to [^18F] 7. […] 7 by E. […] The uptake in E. Coli could also be blocked by co-incubation with 1 mM of cold maltose (98% blocking, p<0.0003), the natural substrate of the transporter. […] Here we allowed bacteria to take up ^3H-labeled maltose for 10 mins.

E-.Coli (ATCC33456) [1] = experiment: Competition assay: blocking of 18F-fluoromaltose uptake in E. coli by co-incubation; format: cell-based, Escherichia coli; settings: co-incubation with 1 mM
Method: (§1) A strain of E-.Coli (ATCC33456) and a mammalian cell line (EL4) were exposed to 1-[^18F]-fluoromaltose or [^18F]-6-fluoromaltose. All bacteria and cells were then washed in 1×PBS, lysed and radioactivity of each well was determined by gamma counter for ^18F samples. All results were done in triplicate and are expressed in counts per minute (CPM), standard errors were determined and t tests performed. The uptake in E. Coli could also be blocked by co-incubation with 1 mM of cold maltose or 1 mM of 1-fluoromaltose.
(§2) To evaluate the ability of bacteria and cells to uptake [^18F]-6-fluoromaltose (7) and 1-[^18F]-fluoromaltose (11), a strain of E. Coli and a mammalian cell line (EL4) were exposed to 7 and 11. […] The uptake in E. Coli could also be blocked by co-incubation with 1 mM of cold maltose (98% blocking, p<0.0003), the natural substrate of the transporter. Likewise, ^3H-maltose uptake in E. Coli was blocked both with 1 mM maltose and 1-fluoromaltose (FIG. 2.4).

[2] = In vivo stability of 1-[18F]fluoromaltose
E-.Coli (ATCC33456) [3] = experiment: In vitro uptake assay in E. coli; format: cell-based, Escherichia coli; settings: radioactivity by gamma counter, CPM, FIG. 2.3
Method: as §1, §2

[4] = PBS, human and mouse serum at 37° C.
Method: Serum (human or mouse) was centrifuged at about 4° C., maximum speed for about 10 min. About 330 μL of supernatant was transferred to an Eppendorf vial containing 20 μL of formulated radiolabelled 6-[^18F]fluoromaltose (50-100 μCi minimum). For control, same volume of radiolabelled compound in 330 μl PBS was used. After vortexing the radiolabelled mixtures, 70 μL aliquots transferred to Eppendorf tubes and incubated at about 37° C. At predetermine time points (e.g., 0, 5, 15, 30, 60 min) 140 μL of ice-cold methanol were added to corresponding samples to stop metabolism. After vortexing and centrifuging samples (10 min max speed), the supernatants were transferred to HPLC vials for HPLC analysis.
The percentage of intact 6-[^18F]fluoromaltose in PBS, human and mouse serum at 37° C. was determined by HPLC.

[5] = tested on: mammalian cell line (EL4); experiment: In vitro uptake assay in mammalian cell line EL4; format: cell-based; settings: 60 minutes post incubation with tracer
Method: as §1, §2

OC[C@H]1O[C@H](O[C@H]2[C@H](O)[C@@H](O)C(O)O[C@@H]2CO)[C@H](O)[C@@H](O)[C@@H]1O (mixture of isomers) [maltose]
blocking of 3H-maltose uptake in E. Coli (Escherichia coli): completely blocked; also recorded: effectively compete | blocking of 18F-fluoromaltose uptake in E. Coli (E-.Coli (ATCC33456) [1]): completely blocked | blocking of [18F]-6-fluoromaltose uptake in E. Coli (E-.Coli (ATCC33456) [1]; p<0.0003): 98%

OC[C@H]1O[C@H](O[C@H]2[C@H](O)[C@@H](O)C([18F])O[C@@H]2CO)[C@H](O)[C@@H](O)[C@@H]1O (stereo partly drawn) [1-[^18F]-fluoromaltose, 4-O-(α-D-glucopyranosyl)-1-deoxy-1-[^18F]-fluoro-D-glucopyranoside]
stability in vivo (de-fluorination) [2]: not stable in vivo and very fast de-fluorinated | uptake of [18F]fluoride ion by the bones ([2]; after de-fluorination): very high

OC[C@H]1O[C@H](O[C@H]2[C@H](O)[C@@H](O)C(F)O[C@@H]2CO)[C@H](O)[C@@H](O)[C@@H]1O (stereo partly drawn) [1-fluoromaltose]
blocking of 3H-maltose uptake in E. Coli (Escherichia coli): completely blocked; also recorded: effectively compete | blocking of 18F-fluoromaltose uptake in E. Coli (E-.Coli (ATCC33456) [1]): blocked

OC[C@H]1O[C@H](O[C@H]2[C@H](O)[C@@H](O)C(O)O[C@@H]2C[18F])[C@H](O)[C@@H](O)[C@@H]1O (stereo partly drawn) [6-[^18F]-fluoromaltose, 4-O-(α-D-glucopyranosyl)-6-deoxy-6-[^18F]-fluoro-D-glucopyranoside]
uptake by E. Coli (E-.Coli (ATCC33456) [3]): take up | uptake by E. Coli (E-.Coli (ATCC33456) [3]; listed as [^18F]-6-fluoromaltose): time dependent | percentage intact 6-[18F]fluoromaltose ([4]; 1 h): ~96% | percentage intact 6-[18F]fluoromaltose ([4]; 2 h): ~65% | uptake by mammalian cell line (EL4) [5]: minimal
